This is an account of results in the supplement of paper PMC10307832.

Holding throughout (experiment): relative viability (nuclei count vs DMSO), 5 days (fraction); higher = more cells survive
Compound in experiment [1]: COc1cccc2cc(-c3nc([C@H]4CC[C@H](C(=O)O)CC4)n4ncnc(N)c34)[nH]c12 [OSI-027] + Nc1ncn([C@H]2C[C@H](O)[C@@H](CO)O2)c(=O)n1 [Decitabine] (partner 2 µM)
The method, boiled down:
(§1)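 The day after seeding in 1536-well plates, lung cancer cell lines were treated by pin tool with a single drug, or with a fixed anchor-drug dose together with five library-drug doses (not always all listed) in √10 steps. After 5 days, a combined fix-and-stain solution (final 0.05% Triton X-100, 1% formaldehyde, 1 ug/ml Hoechst) was added. Nuclei counted on 4× images gave relative viability as treated counts over vehicle counts, reported as the median of duplicate plates.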

Compound in experiment [2]: CCCS(=O)(=O)Nc1ccc(F)c(C(=O)c2c[nH]c3ncc(-c4ccc(Cl)cc4)cc23)c1F [Vemurafenib] + N=C(N)NC(=N)NCCc1ccccc1 [Phenformin] (partner 250 µM)
The method, boiled down: as §1

Compound in experiment [3]: Cc1nc(NC(=O)N2CCC[C@H]2C(N)=O)sc1-c1ccnc(C(C)(C)C(F)(F)F)c1 [Alpelisib] + CC(=O)Nc1cccc(-n2c(=O)n(C3CC3)c(=O)c3c(Nc4ccc(I)cc4F)n(C)c(=O)c(C)c32)c1 [Trametinib] (partner 0.02 µM)
The procedure, abridged: as §1

Compound in experiment [4]: COc1cccc2cc(-c3nc([C@H]4CC[C@H](C(=O)O)CC4)n4ncnc(N)c34)[nH]c12 [OSI-027] + Nc1nc2[nH]cc(CCc3ccc(C(=O)N[C@@H](CCC(=O)O)C(=O)O)cc3)c2c(=O)[nH]1 [Pemetrexed] (partner 0.2 µM)
The procedure, abridged:
as §1

As for UMC-11, the relative viability came out at 0.612 in experiment [1] (first compound 0.01 µM); 0.647 in experiment [1] (first compound 0.03162 µM); 0.52 in experiment [1] (first compound 0.1 µM); 0.492 in experiment [1] (first compound 0.3162 µM); 0.417 in experiment [1] (first compound 1 µM); 0.29 in experiment [2] (first compound 0.03162 µM). For the same cell line, the relative viability in experiment [2] (first compound 0.1 µM) worked out at 0.315; in experiment [2] (first compound 0.3162 µM), 0.227; in experiment [2] (first compound 1 µM) it was 0.315; in experiment [3] (first compound 0.04 µM), 0.696; in experiment [3] (first compound 0.1265 µM), 0.628; in experiment [3] (first compound 0.4 µM), 0.875. Further, the relative viability worked out at 0.67 in experiment [3] (first compound 1.265 µM); 0.68 in experiment [3] (first compound 4 µM); 0.994 in experiment [4] (first compound 0.01 µM); 0.77 in experiment [4] (first compound 0.03162 µM); 0.658 in experiment [4] (first compound 0.1 µM); 0.585 in experiment [4] (first compound 0.3162 µM). Besides, the relative viability in experiment [4] (first compound 1 µM) was determined as 0.444.
